The results in this text go back to PubChem BioAssay AID504843 (Broad Institute, 2011).

The structures appear in SMILES notation. Calls of active or inactive are those of the source. How the calls were made is not given here.

This assay has as its system bacterial growth, BacTiter-Glo ATP luminescence. The experiment in a line: bacterial growth inhibition, dose response, counter-screen, BacTiter-Glo luminescence, cherry-picked samples (AID 504843).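 Further: growth measured after 8 h incubation at 30 °C.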 Background: A counterscreen serves to expose hits that act by an unwanted route or on another target.

What is called AC50 is the midpoint of the concentration-response curve, whichever way the signal moves. `CO[C@H]1C=CO[C@@]2(C)Oc3c(C)c(O)c4c(O)c(c(C=NN5CCN(C)CC5)c(O)c4c3C2=O)NC(=O)C(C)=CC=C[C@H](C)[C@H](O)[C@@H](C)[C@@H](O)[C@@H](C)[C@H](OC(C)=O)[C@@H]1C`: the AC50 is > 15 µM (inactive).
